In patent US20100120730A1, “6-BENZYL-2,3,4,7-TETRAHYDRO-INDOLO [2,3-C] QUINOLINE COMPOUNDS USEFUL AS PDE5 INHIBITORS” (NYCOMED GmbH, priority 2007, published 2010):
pIC50: −log10 of the molar value.

Assays:
human PDE5 = target: T1, human PDE5 (Homo sapiens, UniProt O76074); experiment: Inhibition of PDE5 activity (modified SPA test, human platelet lysate); type: biochemical; conditions: PDE5-containing human platelet lysate, 0.5 μM cGMP substrate, 37° C.
T1 construct: from tissue; host or cells: human platelets from fresh donor blood (10,000 g supernatant of sonified platelets)
Summary of the method: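 Human platelet lysate (10,000 g supernatant) as PDE5 source; SPA with 0.5 μM cGMP plus [3H]cGMP tracer, 20 mM Tris pH 7.4, 5 mM Mg2+, 1 μM motapizone and 10 nM BAY-60-7550; 5 min preincubation at 37° C., 15 min reaction, stopped with SPA beads containing IBMX. IC50 by non-linear regression.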

SMILES	pIC50 (human PDE5)	melting point [°C]
COc1ccc(Cc2nc3c(c4c2[nH]c2ccccc24)C(O)CCC3)cc1 (stereo not drawn) [Example 48, 6-(4-Methoxy-benzyl)-2,3,4,7-tetrahydro-1H-indolo[2,3-c]quinolin-1-ol]	7.88	204
OC1CCCc2nc(Cc3ccccc3)c3[nH]c4ccccc4c3c21 (stereo not drawn) [Example 49, 6-Benzyl-2,3,4,7-tetrahydro-1H-indolo[2,3-c]quinolin-1-ol]	7.18	211
COc1ccc(Cc2c3[nH]c4ccccc4c3c3c([n+]2[O-])CC(C)(C)CC3O)cc1 (stereo not drawn) [Example 52, 6-(4-Methoxy-benzyl)-3,3-dimethyl-5-oxy-2,3,4,7-tetrahydro-1H-indolo[2,3-c]quinolin-1-ol]	7.69	185
CC1(C)Cc2nc(Cc3ccc(OC(F)(F)F)cc3)c3[nH]c4ccccc4c3c2C(O)C1 (stereo not drawn) [Example 53, 3,3-Dimethyl-6-(4-trifluoromethoxy-benzyl)-2,3,4,7-tetrahydro-1H-indolo[2,3-c]quinolin-1-ol]	7.05	117 to 119
CC1(C)Cc2nc(Cc3ccc(N)cc3)c3[nH]c4ccccc4c3c2C(O)C1 (stereo not drawn) [Example 54, 6-(4-Amino-benzyl)-3,3-dimethyl-2,3,4,7-tetrahydro-1H-indolo[2,3-c]quinolin-1-ol]	7.57	206 to 208
CCOc1ccc(Cc2nc3c(c4c2[nH]c2ccccc24)C(O)CC(C)(C)C3)cc1 (stereo not drawn) [Example 55, 6-(4-Ethoxy-benzyl)-3,3-dimethyl-2,3,4,7-tetrahydro-1H-indolo[2,3-c]quinolin-1-ol]	7.60	182 to 184
CC1(C)Cc2nc(Cc3cccc([N+](=O)[O-])c3)c3[nH]c4ccccc4c3c2C(O)C1 (stereo not drawn) [Example 56, 3,3-Dimethyl-6-(3-nitro-benzyl)-2,3,4,7-tetrahydro-1H-indolo[2,3-c]quinolin-1-ol]	6.72	228 to 230
CC(C)c1ccc(Cc2nc3c(c4c2[nH]c2ccccc24)C(O)CC(C)(C)C3)cc1 (stereo not drawn) [Example 58, 6-(4-Isopropyl-benzyl)-3,3-dimethyl-2,3,4,7-tetrahydro-1H-indolo[2,3-c]quinolin-1-ol]	6.83	112 to 114
CCC(=O)Nc1ccc(Cc2nc3c(c4c2[nH]c2ccccc24)C(O)CC(C)(C)C3)cc1 (stereo not drawn) [Example 60, N-[4-(1-Hydroxy-3,3-dimethyl-2,3,4,7-tetrahydro-1H-indolo[2,3-c]quinolin-6-ylmethyl)-phenyl]-propionamide]	7.15	165 to 168
CC1(C)Cc2nc(Cc3cccc(Br)c3)c3[nH]c4ccccc4c3c2C(O)C1 (stereo not drawn) [Example 62, 6-(3-Bromo-benzyl)-3,3-dimethyl-2,3,4,7-tetrahydro-1H-indolo[2,3-c]quinolin-1-ol]	7.30	118 to 125
CC(=O)Nc1ccc(Cc2nc3c(c4c2[nH]c2ccccc24)C(O)CC(C)(C)C3)cc1 (stereo not drawn) [Example 63, N-[4-(1-Hydroxy-3,3-dimethyl-2,3,4,7-tetrahydro-1H-indolo[2,3-c]quinolin-6-ylmethyl)-phenyl]-acetamide]	7.33	195 to 197
CC1(C)Cc2nc(Cc3ccc(F)cc3)c3[nH]c4ccccc4c3c2C(O)C1 (stereo not drawn) [Example 64, 6-(4-Fluoro-benzyl)-3,3-dimethyl-2,3,4,7-tetrahydro-1H-indolo[2,3-c]quinolin-1-ol]	7.54	187 to 189
CC1(C)Cc2nc(Cc3ccc(F)c(F)c3)c3[nH]c4ccccc4c3c2C(O)C1 (stereo not drawn) [Example 66, 6-(3,4-Difluoro-benzyl)-3,3-dimethyl-2,3,4,7-tetrahydro-1H-indolo[2,3-c]quinolin-1-ol]	7.78	121 to 128
CC1(C)Cc2nc(Cc3cc(F)cc(F)c3)c3[nH]c4ccccc4c3c2C(O)C1 (stereo not drawn) [Example 67, 6-(3,5-Difluoro-benzyl)-3,3-dimethyl-2,3,4,7-tetrahydro-1H-indolo[2,3-c]quinolin-1-ol]	8.10	117 to 123
CC(=O)Nc1ccc(Cc2nc3c(c4c2[nH]c2ccccc24)C(O)CCC3)cc1 (stereo not drawn) [Example 69, N-[4-(1-Hydroxy-2,3,4,7-tetrahydro-1H-indolo[2,3-c]quinolin-6-ylmethyl)-phenyl]-acetamide]	6.52	195 to 197
CC1(C)Cc2nc(Cc3ccc(NC(N)=O)cc3)c3[nH]c4ccccc4c3c2C(O)C1 (stereo not drawn) [Example 70, [4-(1-Hydroxy-3,3-dimethyl-2,3,4,7-tetrahydro-1H-indolo[2,3-c]quinolin-6-ylmethyl)-phenyl]-urea]	7.64	236 to 238
NC(=O)Nc1ccc(Cc2nc3c(c4c2[nH]c2ccccc24)C(=O)CCC3)cc1 [Example 76, [4-(1-Oxo-2,3,4,7-tetrahydro-1H-indolo[2,3-c]quinolin-6-ylmethyl)-phenyl]-urea]	7.38	232 to 234
COc1ccc(Cc2c3[nH]c4ccccc4c3c3c([n+]2[O-])CC(C)(C)CC3=O)cc1 [Example 78, 6-(4-Methoxy-benzyl)-3,3-dimethyl-5-oxy-2,3,4,7-tetrahydro-indolo[2,3-c]quinolin-1-one]	7.81	202
COc1ccc(Cc2nc3c(c4c2[nH]c2ccccc24)[C@H](O)CC(C)(C)C3)cc1 [Example 80, (R)-6-(4-Methoxy-benzyl)-3,3-dimethyl-2,3,4,7-tetrahydro-1H-indolo[2,3-c]quinolin-1-ol]	7.00	118 to 120
COc1ccc(Cc2nc3c(c4c2[nH]c2ccccc24)[C@H](O)CC(C)(C)C3)cc1F [Example 82, (R)-6-(3-Fluoro-4-methoxy-benzyl)-3,3-dimethyl-2,3,4,7-tetrahydro-1H-indolo[2,3-c]quinolin-1-ol]	7.50	164 to 166
COc1ccc(Cc2nc3c(c4c2[nH]c2ccccc24)[C@H](O)CCC3)cc1F [Example 83, (R)-6-(3-Fluoro-4-methoxy-benzyl)-2,3,4,7-tetrahydro-1H-indolo[2,3-c]quinolin-1-ol]	7.60	124 to 127
CC1(C)Cc2nc(Cc3cc(F)cc(F)c3)c3[nH]c4ccccc4c3c2[C@H](O)C1 [Example 84, (R)-6-(3,5-Difluoro-benzyl)-3,3-dimethyl-2,3,4,7-tetrahydro-1H-indolo[2,3-c]quinolin-1-ol]	6.40	129 to 131

Compounds with a higher pIC50 (human PDE5), results first:

pIC50 (human PDE5)	melting point [°C]	SMILES
8.27	146	COc1ccc(Cc2nc3c(c4c2[nH]c2ccccc24)C(O)CC(C)(C)C3)cc1 (stereo not drawn) [Example 47, 6-(4-Methoxy-benzyl)-3,3-dimethyl-2,3,4,7-tetrahydro-1H-indolo[2,3-c]quinolin-1-ol]
8.26	212	CC1(C)Cc2nc(Cc3ccc(O)cc3)c3[nH]c4ccccc4c3c2C(O)C1 (stereo not drawn) [Example 51, 6-(4-Hydroxy-benzyl)-3,3-dimethyl-2,3,4,7-tetrahydro-1H-indolo[2,3-c]quinolin-1-ol]
8.39	225 to 227	CC1(C)Cc2nc(Cc3cccc(N)c3)c3[nH]c4ccccc4c3c2C(O)C1 (stereo not drawn) [Example 57, 6-(3-Amino-benzyl)-3,3-dimethyl-2,3,4,7-tetrahydro-1H-indolo[2,3-c]quinolin-1-ol]
8.14	120 to 123	OC1CCCc2nc(Cc3ccc4c(c3)OCO4)c3[nH]c4ccccc4c3c21 (stereo not drawn) [Example 61, 6-Benzo[1,3]dioxol-5-ylmethyl-2,3,4,7-tetrahydro-1H-indolo[2,3-c]quinolin-1-ol]
8.60	118 to 120	COc1ccc(Cc2nc3c(c4c2[nH]c2ccccc24)C(O)CCC3)cc1F (stereo not drawn) [Example 71, 6-(3-Fluoro-4-methoxy-benzyl)-2,3,4,7-tetrahydro-1H-indolo[2,3-c]quinolin-1-ol]
9.70	131 to 133	COc1c(F)cc(Cc2nc3c(c4c2[nH]c2ccccc24)C(O)CC(C)(C)C3)cc1F (stereo not drawn) [Example 73, 6-(3,5-Difluoro-4-methoxy-benzyl)-3,3-dimethyl-2,3,4,7-tetrahydro-1H-indolo[2,3-c]quinolin-1-ol]
9.49	197 to 198	COc1ccc(Cc2nc3c(c4c2[nH]c2ccccc24)C(O)CC(C)(C)C3)c(F)c1F (stereo not drawn) [Example 74, 6-(2,3-Difluoro-4-methoxy-benzyl)-3,3-dimethyl-2,3,4,7-tetrahydro-1H-indolo[2,3-c]quinolin-1-ol]
8.20	158	COc1ccc(Cc2nc3c(c4c2[nH]c2ccccc24)CCC(C)(C)C3)cc1 [Example 77, 6-(4-Methoxy-benzyl)-3,3-dimethyl-2,3,4,7-tetrahydro-1H-indolo[2,3-c]quinoline]
9.10	164 to 166	COc1ccc(Cc2nc3c(c4c2[nH]c2ccccc24)[C@@H](O)CC(C)(C)C3)cc1F [Example 79, (S)-6-(3-Fluoro-4-methoxy-benzyl)-3,3-dimethyl-2,3,4,7-tetrahydro-1H-indolo[2,3-c]quinolin-1-ol]
9.00	118 to 120	COc1ccc(Cc2nc3c(c4c2[nH]c2ccccc24)[C@@H](O)CC(C)(C)C3)cc1 [Example 81, (S)-6-(4-Methoxy-benzyl)-3,3-dimethyl-2,3,4,7-tetrahydro-1H-indolo[2,3-c]quinolin-1-ol]
8.70	125 to 127	COc1ccc(Cc2nc3c(c4c2[nH]c2ccccc24)[C@@H](O)CCC3)cc1F [Example 85, (S)-6-(3-Fluoro-4-methoxy-benzyl)-2,3,4,7-tetrahydro-1H-indolo[2,3-c]quinolin-1-ol]
